# Reference: patent publication US8299267B2, “(3-hydroxy-4-amino-butan-2-yl) -3- (2-thiazol-2-yl-pyrrolidine-1-carbonyl) benzamide derivatives and related compounds as beta-secretase inhibitors for treating” (CoMentis, Inc., priority 2007, dated 2012)
# Target: memapsin 2 (Homo sapiens, UniProt P56817)
# Assay: Inhibition of memapsin 2 beta-secretase activity toward fluorogenic substrate FS-2
# Assay type: biochemical
# Settings: memapsin 2, pH 4, 37° C., 20 minutes pre-incubation, substrate FS-2; read-out: M2Ki
# Protocol: Potency of compounds were determined by measurement of their inhibition of memapsin 2 activity toward a fluorescent substrate. Kinetic inhibition experiments were performed using the procedure as described in Ermolieff, et al. (Biochemistry 39:12450-12456 (2000), the teachings of which are incorporated hereby in their entirety). Briefly, assays were performed at pH 4, 37° C., by pre-incubation of memapsin 2 enzyme with compound for 20 minutes. Activity measurements were initiated by addition of a fluorogenic substrate FS-2 (Bachem Americas, Torrance, Calif.) MCA-SEVNLDAEFK-DNP (SEQ ID NO.: 2). The substrate was derived from 10 amino acids of the human amyloid precursor protein (APP), with the Swedish variant amino acids at the beta-secretase cleavage site. The terminal amino acid was modified from arginine to lysine to facilitate derivatization with a functional group for detection by autofluorescence. The amino acid sequence of the “core” peptide of the substrate is SEVNLDAEFK (SEQ ID NO.: 3). The amino terminus was derivatized with (7-methoxycoumarin-4-yl)acetyl (MCA), and the epsilon amine of the lysine side chain of the terminal residue (K in sequence SEVNLDAEFK (SEQ ID NO.: 4)) was derivatized with 2,4-dinitrophenyl (DNP).
# Sequence of memapsin 2 (P56817 46-501): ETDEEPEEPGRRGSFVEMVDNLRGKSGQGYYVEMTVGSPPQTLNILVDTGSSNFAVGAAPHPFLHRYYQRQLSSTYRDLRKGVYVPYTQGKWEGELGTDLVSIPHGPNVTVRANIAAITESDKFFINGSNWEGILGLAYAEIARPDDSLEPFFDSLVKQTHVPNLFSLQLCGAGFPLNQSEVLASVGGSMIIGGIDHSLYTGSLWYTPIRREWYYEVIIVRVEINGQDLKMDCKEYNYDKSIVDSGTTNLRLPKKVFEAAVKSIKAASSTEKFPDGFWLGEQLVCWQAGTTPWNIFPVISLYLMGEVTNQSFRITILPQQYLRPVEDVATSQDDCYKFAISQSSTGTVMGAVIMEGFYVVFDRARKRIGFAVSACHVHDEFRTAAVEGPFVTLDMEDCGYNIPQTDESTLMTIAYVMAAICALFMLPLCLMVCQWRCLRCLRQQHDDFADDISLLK
row,SMILES,Ki [nM]
1,"COc1cccc(CNC[C@@H](O)[C@H](Cc2ccccc2)NC(=O)c2cccc(C(=O)N3CCC[C@H]3c3nc(C)cs3)c2)c1 [Compound 4, N-((2S,3R)-3-hydroxy-4-(3-methoxybenzylamino)-1-phenylbutan-2-yl)-3-((S)-2-(4-methylthiazol-2-yl)pyrrolidine-1-carbonyl)benzamide]",> 201
2,"COc1cccc(CNC[C@@H](O)[C@H](Cc2ccccc2)NC(=O)c2cccc(C(=O)N3C[C@H](OC)C[C@@H]3c3nc(C)cs3)c2)c1 [Compound 7, N-((2S,3R)-3-hydroxy-4-(3-methoxybenzylamino)-1-phenylbutan-2-yl)-3-((2R,4R)-4-methoxy-2-(4-methylthiazol-2-yl)pyrrolidine-1-carbonyl)benzamide]",> 201
3,"COc1cccc(CNC[C@@H](O)[C@H](Cc2ccccc2)NC(=O)c2cccc(C(=O)N3CS(=O)(=O)C[C@@H]3c3nc(C)cs3)c2)c1 [Compound 13, N-((2S,3R)-3-hydroxy-4-(3-methoxybenzylamino)-1-phenylbutan-2-yl)-3-((R)-4-(4-methylthiazol-2-yl)thiazolidine-S-dioxide-3-carbonyl)benzamide]",> 201
4,"Cc1csc([C@H]2CCCN2C(=O)c2cccc(C(=O)N[C@@H](Cc3ccccc3)[C@H](O)CNC3CC3)c2)n1 [Compound 19, N-((2S,3R)-4-(cyclopropylamino)-3-hydroxy-1-phenylbutan-2-yl)-3-((R)-2-(4-methylthiazol-2-yl)pyrrolidine-1-carbonyl)benzamide]",> 201
5,"COc1cccc([C@H](C)NC[C@@H](O)[C@H](Cc2ccccc2)NC(=O)c2cc(C(=O)N3CCC[C@@H]3c3nc(C)cs3)cc(N(C)C)c2)c1 [Compound 53, 3-(dimethylamino)-N-((2S,3R)-3-hydroxy-4-((S)-1-(3-methoxyphenyl)ethylamino)-1-phenylbutan-2-yl)-5-((R)-2-(4-methylthiazol-2-yl)pyrrolidine-1-carbonyl)benzamide]",101 to 200
6,"Cc1csc(CNC[C@@H](O)[C@H](Cc2ccccc2)NC(=O)c2cccc(C(=O)N3CCC[C@@H]3c3nc(C)cs3)c2)n1 [Compound 67, N-((2S,3R)-3-hydroxy-4-((4-methylthiazol-2-yl)methylamino)-1-phenylbutan-2-yl)-3-((R)-2-(4-methylthiazol-2-yl)pyrrolidine-1-carbonyl)benzamide]",> 201
7,"Cc1coc([C@H]2CCCN2C(=O)c2cncc(C(=O)N[C@@H](Cc3ccccc3)[C@H](O)CNCc3cccc(C(F)(F)F)c3)c2)n1 [Compound 72, N-((2S,3R)-3-hydroxy-1-phenyl-4-(3-(trifluoromethyl)benzylamino)butan-2-yl)-5-((R)-2-(4-methyloxazol-2-yl)pyrrolidine-1-carbonyl)nicotinamide]",< 100
8,"Cc1cc(C(=O)N2CCC[C@@H]2c2nc(C)co2)cc(C(=O)N[C@@H](Cc2ccccc2)[C@H](O)CNCc2cccc(C(F)(F)F)c2)n1 [Compound 96, N-((2S,3R)-3-hydroxy-1-phenyl-4-(3-(trifluoromethyl)benzylamino)butan-2-yl)-6-methyl-4-((R)-2-(4-methyloxazol-2-yl)pyrrolidine-1-carbonyl)picolinamide]",< 100
9,"Cc1cc(C(=O)N[C@@H](Cc2ccccc2)[C@H](O)CNCc2cc3ccccc3o2)cc(C(=O)N2CCC[C@@H]2c2nc(C)cs2)c1 [Compound 97, N-((2S,3R)-4-(benzofuran-2-ylmethylamino)-3-hydroxy-1-phenylbutan-2-yl)-3-methyl-5-((R)-2-(4-methylthiazol-2-yl)pyrrolidine-1-carbonyl)benzamide]",> 201
10,"Cc1csc([C@H]2CCCN2C(=O)c2cc(C(=O)N[C@@H](Cc3ccccc3)[C@H](O)CNCc3cccc(C(F)(F)F)c3)cc(N(C)C)n2)n1 [Compound 98, 2-(dimethylamino)-N-((2S,3R)-3-hydroxy-1-phenyl-4-(3-(trifluoromethyl)benzylamino)butan-2-yl)-6-((R)-2-(4-methylthiazol-2-yl)pyrrolidine-1-carbonyl)isonicotinamide]",< 100
11,"Cc1csc([C@H]2CCCN2C(=O)c2cccc(C(=O)N[C@@H](Cc3ccccc3)[C@H](O)CNCc3cc(C(C)C)no3)c2)n1 [Compound 99, N-((2S,3R)-3-hydroxy-4-((3-isopropylisoxazol-5-yl)methylamino)-1-phenylbutan-2-yl)-3-((R)-2-(4-methylthiazol-2-yl)pyrrolidine-1-carbonyl)benzamide]",< 100
12,"Cc1csc([C@H]2CCCN2C(=O)c2cc(C(=O)N[C@@H](Cc3ccccc3)[C@H](O)CNCc3cccc(C(F)(F)F)c3)nc(N(C)C)n2)n1 [Compound 100, 2-(dimethylamino)-N-((2S,3R)-3-hydroxy-1-phenyl-4-(3-(trifluoromethyl)benzylamino)butan-2-yl)-6-((R)-2-(4-methylthiazol-2-yl)pyrrolidine-1-carbonyl)pyrimidine-4-carboxamide]",< 100

# Continued, values first:
row,Ki [nM],SMILES
1,< 100,"Cc1csc([C@H]2CCCN2C(=O)c2cc(C(=O)N[C@@H](Cc3ccccc3)[C@H](O)CNCc3cncc(C(C)(C)F)c3)cc(N(C)C)c2)n1 [Compound 36, 3-(dimethylamino)-N-((2S,3R)-4-((5-(2-fluoropropan-2-yl)pyridin-3-yl)methylamino)-3-hydroxy-1-phenylbutan-2-yl)-5-((R)-2-(4-methylthiazol-2-yl)pyrrolidine-1-carbonyl)benzamide]"
2,< 100,"COc1cc(C(=O)N[C@@H](Cc2ccccc2)[C@H](O)CNCc2cc(Cl)cc(Cl)c2)cc(C(=O)N2CCC[C@@H]2c2nc(C)cs2)c1 [Compound 54, N-((2S,3R)-4-(3,5-dichlorobenzylamino)-3-hydroxy-1-phenylbutan-2-yl)-3-methoxy-5-((R)-2-(4-methylthiazol-2-yl)pyrrolidine-1-carbonyl)benzamide]"
3,< 100,"Cc1csc([C@H]2CCCN2C(=O)c2cc(C(=O)N[C@@H](Cc3ccccc3)[C@H](O)CNCc3cncc(C(C)(C)F)c3)cc(C(F)F)c2)n1 [Compound 58, 3-(difluoromethyl)-N-((2S,3R)-4-((5-(2-fluoropropan-2-yl)pyridin-3-yl)methylamino)-3-hydroxy-1-phenylbutan-2-yl)-5-((R)-2-(4-methylthiazol-2-yl)pyrrolidine-1-carbonyl)benzamide]"
4,< 100,"Cc1csc([C@H]2CCCN2C(=O)c2cncc(C(=O)N[C@@H](Cc3ccccc3)[C@H](O)CNCc3cc(C#N)cc(C(C)C)c3)c2)n1 [Compound 61, N-((2S,3R)-4-(3-cyano-5-isopropylbenzylamino)-3-hydroxy-1-phenylbutan-2-yl)-5-((R)-2-(4-methylthiazol-2-yl)pyrrolidine-1-carbonyl)nicotinamide]"
5,< 100,"Cc1csc([C@H]2CCCN2C(=O)c2cc(C(=O)N[C@@H](Cc3ccccc3)[C@H](O)CNCc3cncc(C(C)C)c3)cc(C(F)F)c2)n1 [Compound 62, 3-(difluoromethyl)-N-((2S,3R)-3-hydroxy-4-((5-isopropylpyridin-3-yl)methylamino)-1-phenylbutan-2-yl)-5-((R)-2-(4-methylthiazol-2-yl)pyrrolidine-1-carbonyl)benzamide]"
6,< 100,"COc1cccc([C@H](C)NC[C@@H](O)[C@H](Cc2ccccc2)NC(=O)c2cc(C(=O)N3CCC[C@@H]3c3nc(C)cs3)cc(C(F)F)c2)c1 [Compound 63, 3-(difluoromethyl)-N-((2S,3R)-3-hydroxy-4-((S)-1-(3-methoxyphenyl)ethylamino)-1-phenylbutan-2-yl)-5-((R)-2-(4-methylthiazol-2-yl)pyrrolidine-1-carbonyl)benzamide]"
